Key:
[1] = recombinant barcode read abundance after kanamycin selection (control-corrected) (log10(CPM+1)); higher = more efficient recombination; sequences stand for … in AGTGCAGAGAAAATCGGCCAGTTTTCTCTGCCTGCAGTCCGCATGCCGT…AGATTTATGCAGCGGACTGCCTTTCTCCCAAAGTGATAAACCGGACAGTATCATGGACCGGTTTTCCCGGTAATCCGTATTTGCAAGGTTGGTTTCACT; site = the 11-nt target
Description: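 Pooled E. coli target-specificity screen for the IS621 bridge recombinase. Each library plasmid pairs an 11-nt target (CT core) with a bridge RNA whose target-binding loop (9-nt LTG + 4-nt RTG) is reprogrammed; the rest of the 177-nt WT IS621 bridge RNA scaffold is fixed. The plasmid is co-electroporated with a WT donor plasmid; recombinase is induced with 0.1 mM IPTG and recombinants are selected on kanamycin. Recombinant barcodes are sequenced, converted to CPM, averaged over two biological replicates and corrected by the unselected control CPM. Molecule = full bridge RNA written as DNA: LTG = specificity nt 1-9, RTG = reverse complement of specificity nt 8-11, in the WT scaffold.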

[2] = recombinant UMI read abundance after kanamycin selection (control-corrected) (log10(CPM+1)); higher = more efficient recombination; extreme values may be limits of the assay; sequences stand for … in AGTGCAGAGAAAATCGGCCAGTTTTCTCTGCCTGCAGTCCGCATGCCGTGGGACCCCTTGGGTTCTAACCTGTTGCCTAGATTTATGCAGCGGACTGCCTTTCTCCCAAAGTGATAAACCGG…AGGTTGGTTTCACT; site = the 11-nt donor
Procedure, shortened: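 In a pooled Escherichia coli screen for the IS621 bridge recombinase, donor and donor-binding-loop pairs were each placed with a 12-nt UMI on a plasmid bearing a promoterless kanamycin gene. This library was co-electroporated with a target plasmid encoding a fixed target and T7-inducible recombinase, and cells were plated either on IPTG (0.07 mM) plus kanamycin or without selection, in two replicates each. Recombinant UMIs were PCR-amplified across the donor–target junction and sequenced, and counts were converted to CPM, averaged over replicates, scaled by control-derived factors and reported as log10(CPM+1).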
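Wherever recombinant UMI read abundance after kanamycin selection (control-corrected) is given: IS621 bridge recombinase in Escherichia coli cells against a fixed T5 target plasmid.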

Row | Sequence | recombinant barcode read abundance (log10) [1] | recombinant UMI read abundance (log10) [2]
1 | AAACCACCTTGGGTTCTAACCTGTTGCCT (site AAACCACCTAG) | 1.49 | –
2 | AAACCACCTTGGGTTCTAACCTGTTGCCT (site ACACCACCTAG) | 0.257 | –
3 | AAACCACCTTGGGTTCTAACCTGTTGCCT (site AGACCACCTAG) | 0.276 | –
4 | AAACCACCTTGGGTTCTAACCTGTTGCCT (site ATACCACCTAG) | 0.861 | –
5 | AAATCCTCTTGGGTTCTAACCTGTTGCCT (site AAATCCTCTAG) | 1.04 | –
6 | AAATCCTCTTGGGTTCTAACCTGTTGCCT (site CAATCCTCTAG) | 0.475 | –
7 | AAATCCTCTTGGGTTCTAACCTGTTGCCT (site GAATCCTCTAG) | 0.085 | –
8 | AAATCCTCTTGGGTTCTAACCTGTTGCCT (site TAATCCTCTAG) | 0.409 | –
9 | AAATGACCTTGGGTTCTAACCTGTTGCGT (site AAATGACCTAC) | 2.66 | –
10 | AAATGACCTTGGGTTCTAACCTGTTGCGT (site GTGCCCGCTCT) | 0.548 | –
11 | AAATTGACTTGGGTTCTAACCTGTTGCCT (site AAATTGACTAG) | 0.624 | –
12 | AAATTGACTTGGGTTCTAACCTGTTGCCT (site AACTTGACTAG) | 0.136 | –
13 | AAATTGACTTGGGTTCTAACCTGTTGCCT (site AAGTTGACTAG) | 0.0999 | –
14 | AAATTGACTTGGGTTCTAACCTGTTGCCT (site AATTTGACTAG) | 0.0913 | –
15 | AAATTTCCTTGGGTTCTAACCTGTTGCCT (site AAATTTCCTAG) | 0.42 | –
16 | AAATTTCCTTGGGTTCTAACCTGTTGCCT (site ACATTTCCTAG) | 0.0879 | –
17 | AAATTTCCTTGGGTTCTAACCTGTTGCCT (site AGATTTCCTAG) | 0.0553 | –
18 | TTGTCACCATGGACCGGTTTTCCCGGTAATCCGTATTTGTG (site TTGTCACCTCA) | – | 0.0196
19 | TTGTCGACATGGACCGGTTTTCCCGGTAATCCGTATTTGAC (site TTGTCGACTGT) | – | 0.302
20 | TTGTGGCCATGGACCGGTTTTCCCGGTAATCCGTATTTGTG (site TTGTGGCCTCA) | – | 0.0156
21 | TTGTGTACATGGACCGGTTTTCCCGGTAATCCGTATTTGCA (site TTGTGTACTTG) | – | 0.756
22 | TTTAATCCATGGACCGGTTTTCCCGGTAATCCGTATTTGAT (site TTTAATCCTAT) | – | 0.157
23 | TTTAGGGCATGGACCGGTTTTCCCGGTAATCCGTATTTGAC (site TTTAGGGCTGT) | – | 1.53
24 | TTTATTTCATGGACCGGTTTTCCCGGTAATCCGTATTTGAG (site TTTATTTCTCT) | – | 0.00225
25 | TTTCCGGCATGGACCGGTTTTCCCGGTAATCCGTATTTGTA (site TTTCCGGCTTA) | – | 0.262
26 | TTTCGATCATGGACCGGTTTTCCCGGTAATCCGTATTTGGT (site TTTCGATCTAC) | – | 0.00229
27 | TTTCTGCCATGGACCGGTTTTCCCGGTAATCCGTATTTGAA (site TTTCTGCCTTT) | – | 0.00894

Row | Sequence | recombinant barcode read abundance (log10) [1] | recombinant UMI read abundance (log10) [2]
28 | TTTCTGCCATGGACCGGTTTTCCCGGTAATCCGTATTTGCG (site TTTCTGCCTCG) | – | 0.0153
29 | TTTGAGGCATGGACCGGTTTTCCCGGTAATCCGTATTTGCT (site TTTGAGGCTAG) | – | 1.31
30 | TTTGAGGCATGGACCGGTTTTCCCGGTAATCCGTATTTGCT (site TTTGCGGCTAG) | – | 0
31 | TTTGAGGCATGGACCGGTTTTCCCGGTAATCCGTATTTGCT (site TTTGGGGCTAG) | – | 0.458
32 | TTTGAGGCATGGACCGGTTTTCCCGGTAATCCGTATTTGCT (site TTTGTGGCTAG) | – | 0.0143
33 | TTTGCGACATGGACCGGTTTTCCCGGTAATCCGTATTTGCT (site TTTGCGACTAG) | – | 0.529
34 | TTTGCGACATGGACCGGTTTTCCCGGTAATCCGTATTTGCT (site TTTGCGCCTAG) | – | 0.00919
35 | TTTGCGACATGGACCGGTTTTCCCGGTAATCCGTATTTGCT (site TTTGCGGCTAG) | – | 0.145
36 | TTTGCGACATGGACCGGTTTTCCCGGTAATCCGTATTTGCT (site TTTGCGTCTAG) | – | 0
37 | TTTGCGGCATGGACCGGTTTTCCCGGTAATCCGTATTTGGT (site TTTGCGGCTAA) | – | 0.0207
38 | TTTGCGGCATGGACCGGTTTTCCCGGTAATCCGTATTTGGT (site TTTGCGGCTAC) | – | 0.0146
39 | TTTGCGGCATGGACCGGTTTTCCCGGTAATCCGTATTTGGT (site TTTGCGGCTAG) | – | 0.0123
40 | TTTGCGGCATGGACCGGTTTTCCCGGTAATCCGTATTTGGT (site TTTGCGGCTAT) | – | 0.144
41 | TTTGCGGCATGGACCGGTTTTCCCGGTAATCCGTATTTGTT (site TTTGCGGCTAA) | – | 0.223
42 | TTTGCGGCATGGACCGGTTTTCCCGGTAATCCGTATTTGTT (site TTTGCGGCTAC) | – | 0.0157
43 | TTTGCGGCATGGACCGGTTTTCCCGGTAATCCGTATTTGTT (site TTTGCGGCTAG) | – | 0.0139
44 | TTTGCGGCATGGACCGGTTTTCCCGGTAATCCGTATTTGTT (site TTTGCGGCTAT) | – | 0.00523
45 | TTTGCTTCATGGACCGGTTTTCCCGGTAATCCGTATTTGGT (site TTTGCTTCTAC) | – | 0.00326
46 | TTTGTTCCATGGACCGGTTTTCCCGGTAATCCGTATTTGTG (site TTTGTTCCTCA) | – | 0.0191
47 | TTTTCCCCATGGACCGGTTTTCCCGGTAATCCGTATTTGTA (site TATTCCCCTTA) | – | 0.00331
48 | TTTTCCCCATGGACCGGTTTTCCCGGTAATCCGTATTTGTA (site TCTTCCCCTTA) | – | 0.00391
49 | TTTTCCCCATGGACCGGTTTTCCCGGTAATCCGTATTTGTA (site TGTTCCCCTTA) | – | 0.0253
50 | TTTTCCCCATGGACCGGTTTTCCCGGTAATCCGTATTTGTA (site TTTTCCCCTTA) | – | 0.0384
51 | TTTTCGGCATGGACCGGTTTTCCCGGTAATCCGTATTTGCT (site TTTACGGCTAG) | – | 0.0102
52 | TTTTCGGCATGGACCGGTTTTCCCGGTAATCCGTATTTGCT (site TTTCCGGCTAG) | – | 0.302
53 | TTTTCGGCATGGACCGGTTTTCCCGGTAATCCGTATTTGCT (site TTTGCGGCTAG) | – | 0.00223
54 | TTTTCGGCATGGACCGGTTTTCCCGGTAATCCGTATTTGCT (site TTTTCGGCTAG) | – | 0.0145

Source: the supplement of paper PMC11208160
